Like-named read-outs stand apart in the source and are kept apart here. Numbered stars: 1 amine (or outer) side, 2 acyl side, 3 side chain; on linkers, the order of the positions; unused ones are H or OH. Bridge positions count the residues as written; N and C are the ends. Square brackets hold non-standard residues; d marks the D form. Peptide text beside a SMILES is read from it. * marks the point of attachment. pTerphenylCO(4''-OnC5H11) = CCCCCOc1ccc(-c2ccc(-c3ccc(C(=O)*)cc3)cc2)cc1; Orn(4R-OH,5R-OH) = O=C([C@H](C[C@@H](O)[C@@H](O)N[*:3])N[*:1])[*:2]; hTyr(3S-OH,4S-OH) = N[C@H](C(=O)O)[C@H](O)[C@@H](O)c1ccc(O)cc1; Pro(3S-OH,4S-Me) = C[C@H]1CN[C@H](C(=O)O)[C@H]1O; Hyp = O=C(O)[C@@H]1C[C@@H](O)CN1
Experiments:
in vitro = settings: human
[1] = test system: T. gondii tachyzoites (RH strain, clone 2F1); test: microbe, parasite or virus in culture; assay type: cell-based, Toxoplasma gondii; settings: for EC50: 72 h, read-out: EC50 ± SD against T. gondii tachyzoites
HFF cells = test: Cytotoxicity in mammalian cells (MTT assay); settings: read-out: CC50 ± SD against HFF cells; HFF, 72 h, MTT; highest tested concentration 50 μM; ± SD of two independent experiments
[2] = Cytotoxicity in mammalian cells (MTT assay); settings: human, HFF cells
T. gondii = test system: T. gondii; design: method as in PMID 23019377; settings: T. gondii-infected mice, after 16 days of treatment, cited from earlier work
[3] = Toxoplasma gondii, RH-2F1 tachyzoites in HFF, β-galactosidase readout, ± SD of two independent experiments
[4] = CC50 HFF cells/EC50 T. gondii ratio
[5] = RH-2F1 tachyzoites in HFF, β-galactosidase readout, ± SD of two independent experiments

Row | SMILES | EC50 [1, 3] [nM] | Selectivity Index (SI) [1, 4] | CC50 at 72 h [2] [nM] | other results
1 | CO[C@H]1C[C@@H]2CC[C@@H](C)[C@@](O)(O2)C(=O)C(=O)N2CCCC[C@H]2C(=O)O[C@H]([C@H](C)C[C@@H]2CC[C@@H](O)[C@H](OC)C2)CC(=O)[C@H](C)/C=C(\C)[C@@H](O)[C@@H](OC)C(=O)[C@H](C)C[C@H](C)/C=C/C=C/C=C/1C [Compound 17, Rapamycin] | 770 ± 300 | – | – | CC50 at 72 h (in vitro): > 50000 nM; Selectivity Index (SI) [1]: >65
2 | CNC(=O)c1cc(Oc2ccc(NC(=O)Nc3ccc(Cl)c(C(F)(F)F)c3)c(F)c2)ccn1 [Compound 4, Regorafenib] | 400 ± 150 | 29 | – | CC50 at 72 h (in vitro): 11600 ± 2190 nM
3 | COc1cccc2c1CCCC2CCCN1CCN(C2CCCCC2)CC1 (stereo not drawn) [Compound 23, PB 28] | – | >102 | – | CC50 (HFF cells): > 50000 nM; EC50 [1, 5]: 490 ± 210 nM
4 | CCCCCOc1ccc(-c2ccc(-c3ccc(C(=O)N[C@H]4C[C@@H](O)[C@@H](O)NC(=O)[C@@H]5[C@@H](O)[C@@H](C)CN5C(=O)[C@H]([C@@H](C)O)NC(=O)[C@H]([C@H](O)[C@@H](O)c5ccc(O)cc5)NC(=O)[C@@H]5C[C@@H](O)CN5C(=O)[C@H]([C@@H](C)O)NC4=O)cc3)cc2)cc1 [Compound 19, Anidulafungin] ({pTerphenylCO(4''-OnC5H11)}-[Orn(4R-OH,5R-OH)]T[Hyp][hTyr(3S-OH,4S-OH)]T[Pro(3S-OH,4S-Me)]; lactam 1-C) | 830 ± 210 | 47 | – | CC50 (in vitro): 38900 ± 15700 nM
5 | CN(C)[C@@H]1C(O)=C(C(N)=O)C(=O)[C@@]2(O)C(O)=C3C(=O)c4c(O)cccc4[C@@](C)(O)[C@H]3C[C@@H]12 [Compound 15, Tetracycline] | 910 ± 90 | – | – | CC50 (in vitro): > 50000 nM
6 | COc1cc2c3cc1Oc1c(OC)c(OC)cc4c1[C@@H](Cc1ccc(O)c(c1)Oc1ccc(cc1)C[C@@H]3N(C)CC2)N(C)CC4 [Compound 18, Berbamine] | 740 ± 340 | 61 | – | CC50 (in vitro): 45300 ± 5400 nM
7 | O=C(Nc1ccc([N+](=O)[O-])cc1Cl)c1cc(Cl)ccc1O [Compound 1, Niclosamide] | 430 ± 150 | – | 35500 ± 9570 | Selectivity Index (SI) [1]: 83
8 | Nc1nc(Nc2ccc3c(c2)CC[C@@H](N2CCCC2)CC3)nn1-c1cc2c(nn1)-c1ccccc1CCC2 [Compound 2, Bemcentinib] | 380 ± 190 | 83 | – | CC50 at 72 h (in vitro): 31600 ± 5520 nM
9 | CCN1CCN(Cc2ccc(Nc3ncc(F)c(-c4cc(F)c5nc(C)n(C(C)C)c5c4)n3)nc2)CC1 [Compound 12, Abemaciclib] | 50 ± 20 | – | > 50000 | –
10 | CCOc1ccc(Cc2nccc3cc(OCC)c(OCC)cc23)cc1OCC [Compound 3, Ethaverine] | 920 ± 90 | – | – | CC50 at 72 h (in vitro): > 50000 nM; Selectivity Index (SI) [1]: >54
11 | O=c1[nH]c2ccccc2n1C1CCN(CCCC(c2ccc(F)cc2)c2ccc(F)cc2)CC1 [Compound 29, Pimozide] | 820 ± 220 | – | > 50000 | Selectivity Index (SI) [1]: >61
12 | Nc1nc2nc[nH]c2c(=S)[nH]1 [Compound 6, Tioguanine] | – | – | > 50000 | Selectivity Index (SI) [1]: >109; EC50 ([1]; Toxoplasma gondii): 460 ± 190 nM
13 | COC(=O)C1=C(C)NC(C)=C(C(=O)OCCN2CCN(C(c3ccccc3)c3ccccc3)CC2)C1c1cccc([N+](=O)[O-])c1 (stereo not drawn) [Compound 10, Manidipine] | 700 ± 250 | >71 | – | CC50 at 72 h (in vitro): > 50000 nM
14 | O=C1C(O)=C([C@H]2CC[C@H](c3ccc(Cl)cc3)CC2)C(=O)c2ccccc21 [Atovaquone] | – | – | – | reduction of the number of brain cysts (T. gondii; 5 mg/kg): 44%
15 | CCSc1ccc2c(c1)N(CCCN1CCN(C)CC1)c1ccccc1S2 [Compound 21, Thiethylperazine] | 900 ± 110 | – | – | CC50 at 72 h (in vitro): 33100 ± 6010 nM; Selectivity Index (SI) [1]: 37
16 | CC(C)(C)Cn1c(N)nc2ccc(-c3[nH]c(C(C)(C)C)nc3-c3ccc(F)cc3)nc21 [Compound 7, LY 2228820] | 230 ± 10 | 116 | – | CC50 (in vitro): 26600 ± 11600 nM

Row | SMILES | EC50 [1, 3] [nM] | Selectivity Index (SI) [1, 4] | CC50 at 72 h [2] [nM] | other results
17 | CNC(=O)c1cc(Oc2ccc(NC(=O)Nc3ccc(Cl)c(C(F)(F)F)c3)cc2)ccn1 [Compound 9, Sorafenib] | 650 ± 250 | – | 12400 ± 3170 | –
18 | C[C@@H]1C[C@@H]([C@H](O)CC2CC(=O)NC(=O)C2)C(=O)[C@@H](C)C1 [Compound 25, Cycloheximide] | 40 ± 20 | – | – | CC50 (in vitro): 2480 ± 80 nM
19 | OC(CNCC(O)C1CCc2cc(F)ccc2O1)C1CCc2cc(F)ccc2O1 (stereo not drawn) [Compound 28, Nebivolol] | 780 ± 280 | – | 37100 ± 2880 | Selectivity Index (SI) [1]: 48
20 | CNCc1[cH-]ccc1CNc1ccnc2cc(Cl)ccc12.[Fe+2].c1cc[cH-]c1 [Compound 27, Desmethyl ferroquine] | – | 71 | – | CC50 (HFF cells): 38200 ± 15600 nM; EC50 [1, 5]: 540 ± 20 nM
21 | COc1ccc2cc1Oc1ccc(cc1)C[C@H]1c3cc(c(OC)cc3CCN1C)Oc1c(O)c(OC)cc3c1[C@H](C2)N(C)CC3 [Compound 20, Hanfangchin B] | – | 54 | – | CC50 (HFF cells): 45000 ± 5850 nM; EC50 [1, 5]: 840 ± 190 nM
22 | CCc1nc(N)nc(N)c1-c1ccc(Cl)cc1 [Compound 30, Pyrimetamine] | 370 ± 80 | – | > 50000 | –
23 | O=C1NCN(c2ccccc2)C12CCN(CCCC(c1ccc(F)cc1)c1ccc(F)cc1)CC2 [Compound 14, Fluspirilene] | 760 ± 70 | – | > 50000 | –
24 | COc1cc(NC(=O)Nc2cccc(CNC(=O)O[C@H]3CCOC3)c2)ccc1-c1cnco1 [Compound 24, Merimepodib] | 780 ± 270 | – | – | CC50 (in vitro): 26400 ± 10000 nM
25 | COc1cc2[nH]c(C)c(-c3ccc(Oc4ccc(OC(F)(F)F)cc4)cc3)c(=O)c2cc1F [ELQ-316] | – | – | – | reduction of the number of brain cysts (T. gondii; 25 mg/kg): 88%
26 | CCC(C)n1ncn(-c2ccc(N3CCN(c4ccc(OCC5COC(Cn6cncn6)(c6ccc(Cl)cc6Cl)O5)cc4)CC3)cc2)c1=O (stereo not drawn) [Compound 5, Itraconazole] | 100 ± 10 | – | > 50000 | –
27 | C[C@@H](C1CCCCC1)n1c(-c2cc3c(cc2Br)OCO3)nc2cc(C(=O)Nc3ccc(C#N)cc3)ccc21 [Compound 26, AZ3451] | – | >55 | – | CC50 (HFF cells): > 50000 nM; EC50 [1, 5]: 910 ± 90 nM
28 | CN(C)CCOc1ccc(/C(=C(/CCCl)c2ccccc2)c2ccccc2)cc1 [Compound 16, Toremifene] | – | – | – | CC50 at 72 h (in vitro): 44300 ± 6800 nM; EC50 ([1]; Toxoplasma gondii): 850 ± 180 nM
29 | O=C(O)c1ccc2c(c1)nc(Nc1cccc(Cl)c1)c1ccncc12 [Compound 22, Silmitasertib] | 870 ± 150 | – | 38400 ± 16400 | –
30 | COc1ccc2cc1Oc1ccc(cc1)C[C@H]1c3cc(c(OC)cc3CCN1C)Oc1c(OC)c(OC)cc3c1[C@H](C2)N(C)CC3 [Compound 13, Tetrandrine] | 490 ± 150 | – | – | CC50 (in vitro): 34700 ± 17000 nM; Selectivity Index (SI) [1]: 71
31 | C=CCNc1nc(NCC=C)nc(N2CCN(C(c3ccc(F)cc3)c3ccc(F)cc3)CC2)n1 [Compound 11, Almitrine] | 320 ± 140 | – | > 50000 | –

Source: PMC10328330 (PLOS ONE, 2023)
